{
  "source": "patent US7390831B2",
  "about": "“Tetracyclic steroid derivatives useful as progesterone receptor modulators” (Janssen Pharmaceutica N.V., priority 2006, dated 2008)",
  "key": {"[1]": {"system": "T47D human breast cancer cells", "assay": "T47D Human Breast Cancer Cells Assay (alkaline phosphatase, luminescence)", "type": "cell-based", "experimental": "T47D Human Breast Cancer Cells Assay\nT47D human breast cancer cells were grown in RPMI medium without phenol red (Invitrogen) containing 10% (v/v) heat-inactivated fetal bovine serum (FBS; Hyclone), 1% (v/v) penicillin-streptomycin (Invitrogen), 1% (w/v) glutamine (Invitrogen), and […] insulin (Sigma). Incubation conditions were 37° C. in a humidified 5% (v/v) carbon dioxide environment.\nThe cells were plated in 96-well tissue culture plates at 10,000 cells per well in assay medium [RPMI medium without phenol red (Invitrogen) containing 5% (v/v) charcoal-treated FBS (Hyclone) and 1% (v/v) penicillin-streptomycin (Invitrogen)]. Two days later, the medium was decanted and test compound or control were added at a final concentration of 0.1% (v/v) dimethyl sulfoxide in fresh assay medium. Twenty-four hours later, an alkaline phosphatase assay was performed using a SEAP kit (BD Biosciences Clontech, Palo Alto, Calif.). Briefly, the medium was decanted and the cells were fixed for 30 minutes at room temperature with 5% (v/v) formalin (Sigma). The cells were washed once with room temperature Hank's buffered saline solution (Invitrogen). Equal volumes (0.05 mL) of 1× Dilution Buffer, Assay Buffer and 1:20 substrate/enhancer mixture were then added. After 1 hour incubation at room temperature in the dark, the lysate was transferred to a white 96-well plate (Dynex) and luminescence was read using a LuminoSkan Ascent (Thermo Electron, Woburn, Mass.).\n(§1) Representative compounds of the present invention were tested according to the procedures described in Examples 45 and 46 above, with results as listed in Table 2 below."}, "[2]": {"system": "A549 Human lung carcinoma cells", "assay": "A549 Human Lung Cell Assay (transfected cells, dexamethasone challenge, luciferase read-out)", "type": "cell-based", "details": "test compound 10 min then dexamethasone challenge, 24 h, Luc-assay, read-out: A 549 IC50", "experimental": "A549Human Lung Cell Assay\nA549Human lung carcinoma cells were grown in F-12K Nutrient Mixture containing 10% (v/v) fetal bovine serum (FBS; Invitrogen), 2 mM glutamine and 0.15% sodium dicarbonate (Invitrogen).\nA549 cells were split 1 to 3 in 175 cm tissue culture flask. The cells were incubated at 37° C. in CO2 incubator until the cells were 95% confluent (typically 24-30 hours).\nThe following solutions were prepared in sterile tubes: (a) Solution A 1.5 μg/ml of DNA in 8.5 ml OPTI-MEM I Reduced Serum Medium. (GIBCO cat# 31985) and (b) Solution B: 6 μl/ml of DMRIE-C Reagent into […] OPTI-MEM I. The two solutions were combined and mixed gently, then incubated at room temperature for 40 minutes.\nThe A549 cells prepared above were washed with […] of OPTI-MEM I. The medium was removed and 17 ml of the lipid-DNA complex solution was overlayed onto cells. The cells ere then incubated for 16 h at 37° C. in CO2 incubator. The DNA-containing medium was removed and 30 ml of growth medium was added. (5% Charcoal treated FBS) After 5-6 h, the cells were seeded in a 96 well plate and the cells incubated overnight at 37° C. in CO2 incubator.\nTo each well was then added 5 μl of test compounds and the cells incubated at 37° C. for 10 min. 5 μL of dexamathasone (CAS [50-02-2]), was then added to each well for challenger and the cells incubated at 37° C. in CO2 incubator for 24 h. 100 μl of Luc-assay buffer was then added into each cell well and the cells incubated for 30 min at room temperature. A 150 μL sample from each well was then transferred into a DYNEX Microlitel plate and read on Top-counter.\nas §1"}, "[3]": {"details": "read-out: T47D IC50, T47D cells, 24 h with test compound, alkaline phosphatase assay (SEAP kit)"}, "[4]": {"details": "Homo sapiens, T47D, 24 h, read-out: T47D IC50 (nM), T47D cells, 24 h with test compound, alkaline phosphatase assay (SEAP kit)"}},
  "note": "Read-outs that look alike come from different tables or passages of the source.",
  "data": [
    {"smiles": "COc1ccc([C@H]2OC[C@@]3(C)C(CC[C@@]3(O)C#Cc3ccc(C(F)(F)F)cc3)C3CCC4=CC(=O)CCC4=C32)cc1", "note": "(stereo partly drawn) [Compound 21, 1-Hydroxy-10-(4-methoxy-phenyl)-12a-methyl-1-(4-trifluoromethylphenylethynyl)-2,3,3a,3b,4,5,9,10,12,12a-decahydro-1H,8H-11-oxa-naphtho[2,1-e]azulen-7-one]", "values": [
      {"measurement": "IC50", "setting": "[1]; [3]", "result": "> 1000", "unit": "nM"},
      {"measurement": "IC50", "setting": "[2]; A549 cells", "result": "> 1000", "unit": "nM"}
    ]},
    {"smiles": "COc1ccc([C@H]2OC[C@@]3(C)C(CC[C@@]3(O)C#Cc3ccc(C(F)(F)F)cc3)C3CCC4=CC(=O)CCC4=C32)cc1", "note": "(stereo partly drawn) [Compound 6, 1-Hydroxy-10-(4-methoxy-phenyl)-12a-methyl-1-(4-trifluoromethyl-phenylethynyl)-2,3,3a,3b,4,5,9,10,12,12a-decahydro-1H,8H-11-oxa-naphtho[2,1-e]azulen-7-one]", "values": [
      {"measurement": "IC50", "setting": "[1]; [3]", "result": 83, "unit": "nM"},
      {"measurement": "IC50", "setting": "[2]; A549 cells", "result": 109, "unit": "nM"}
    ]},
    {"smiles": "COc1ccc([C@H]2OC[C@@]3(C)C(CC[C@@]3(O)C#CC(F)(F)F)C3CCC4=CC(=O)CCC4=C32)cc1", "note": "(stereo partly drawn) [Compound 19, 1-Hydroxy-10-(4-methoxy-phenyl)-12a-methyl-1-trifluoroprop-1-ynyl-2,3,3a,3b,4,5,9,10,12,12a-decahydro-1H,8H-11-oxa-naphtho[2,1-e]azulen-7-one]", "values": [
      {"measurement": "IC50", "setting": "[1]; [4]", "result": "> 1000", "unit": "nM"},
      {"measurement": "IC50", "setting": "[2]; Homo sapiens, A549, A549 cells", "result": "> 3000", "unit": "nM"}
    ]},
    {"smiles": "COc1ccc([C@@H]2OC[C@@]3(C)C(CC[C@@]3(O)C#CC(F)(F)F)C3CCC4=CC(=O)CCC4=C32)cc1", "note": "(stereo partly drawn) [Compound 20, 1-Hydroxy-10-[…]-(4-methoxy-phenyl)-12a-methyl-1-trifluoroprop-1-ynyl-2,3,3a,3b,4,5,9,10,12,12a-decahydro-1H,8H-11-oxa-naphtho[2,1-e]azulen-7-one]", "values": [
      {"measurement": "IC50", "setting": "[1]; [4]", "result": "> 1000", "unit": "nM"},
      {"measurement": "IC50", "setting": "[2]; Homo sapiens, A549, A549 cells", "result": "> 3000", "unit": "nM"}
    ]},
    {"smiles": "CN(C)c1ccc([C@H]2OC[C@]3(C)C(=O)CCC3C3CCC4=CC(=O)CCC4=C32)cc1", "note": "(stereo partly drawn) [Compound 10, 10-(4-Dimethylamino-phenyl)-12a-methyl-2,3,3a,3b,4,5,9,10,12,12a-decahydro-8H-11-oxa-naphtho[2,1-e]azulene-1,7-dione]", "values": [
      {"measurement": "IC50", "setting": "[1]; [4]", "result": 1800, "unit": "nM"},
      {"measurement": "IC50", "setting": "[2]; Homo sapiens, A549, A549 cells", "result": "> 3000", "unit": "nM"}
    ]},
    {"smiles": "C=C(C)[C@]1(O)CCC2C3CCC4=CC(=O)CCC4=C3[C@@H](c3ccc(N(C)C)cc3)OC[C@@]21C", "note": "(stereo partly drawn) [Compound 1, 10-(4-Dimethylamino-phenyl)-1-hydroxy-1-isopropenyl-12a methyl-2,3,3a,3b,4,5,9,10,12,12a-decahydro-1H,8H-11-oxa-naphtho[2,1 e]azulen-7-one]", "values": [
      {"measurement": "IC50", "setting": "[1]; [4]", "result": 0.4, "unit": "nM"},
      {"measurement": "IC50", "setting": "[2]; Homo sapiens, A549, A549 cells", "result": 50.1, "unit": "nM"}
    ]},
    {"smiles": "COc1ccc([C@H]2OC[C@@]3(C)C(CC[C@@]3(O)C#Cc3ccccc3)C3CCC4=CC(=O)CCC4=C32)cc1", "note": "(stereo partly drawn) [Compound 16, 1-Hydroxy-10-(4-methoxy-phenyl)-12a-methyl-1-phenylethynyl-2,3,3a,3b,4,5,9,10,12,12a-decahydro-1H,8H-11-oxa-naphtho[2,1-e]azulen-7-one]", "values": [
      {"measurement": "IC50", "setting": "[1]; [3]", "result": "> 1000", "unit": "nM"},
      {"measurement": "IC50", "setting": "[2]; A549 cells", "result": "> 3000", "unit": "nM"}
    ]},
    {"smiles": "C=C(C)[C@]1(O)CCC2C3CCC4=CC(=O)CCC4=C3[C@@H](c3ccc(SC)cc3)OC[C@@]21C", "note": "(stereo partly drawn) [Compound 2, 1-Hydroxy-1-isopropenyl-12a-methyl-10-(4-methylsulfanyl-phenyl)-2,3,3a,3b,4,5,9,10,12,12a-decahydro-1H,8H-11-oxa-naphtho[2,1-e]azulen-7-one]", "values": [
      {"measurement": "IC50", "setting": "[1]; [4]", "result": 5.12, "unit": "nM"},
      {"measurement": "IC50", "setting": "[2]; Homo sapiens, A549, A549 cells", "result": 58.2, "unit": "nM"}
    ]},
    {"smiles": "COc1ccc([C@H]2OC[C@@]3(C)C(CC[C@@]3(O)C#Cc3ccc(C(C)(C)C)cc3)C3CCC4=CC(=O)CCC4=C32)cc1", "note": "(stereo partly drawn) [Compound 9, 1-(4-tert-Butyl-phenylethynyl)-1-hydroxy-10-(4-methoxy-phenyl)-12a-methyl-2,3,3a,3b,4,5,9,10,12,12a-decahydro-1H,8H-11-oxa-naphtho[2,1-e]azulen-7-one]", "values": [
      {"measurement": "IC50", "setting": "[1]; [4]", "result": 264, "unit": "nM"},
      {"measurement": "IC50", "setting": "[2]; Homo sapiens, A549, A549 cells", "result": 626, "unit": "nM"}
    ]},
    {"smiles": "C=C(CCO)[C@]1(O)CCC2C3CCC4=CC(=O)CCC4=C3[C@@H](c3ccc(OC)cc3)OC[C@@]21C", "note": "(stereo partly drawn) [Compound 24]", "values": [
      {"measurement": "IC50", "setting": "[1]; [4]", "result": 176, "unit": "nM"},
      {"measurement": "IC50", "setting": "[1]; [3]", "result": 130, "unit": "nM"},
      {"measurement": "IC50", "setting": "[2]; Homo sapiens, A549, A549 cells", "result": 771, "unit": "nM"}
    ]},
    {"smiles": "C#C[C@]1(O)CCC2C3CCC4=CC(=O)CCC4=C3[C@@H](c3ccc(OC)cc3)OC[C@@]21C", "note": "(stereo partly drawn) [Compound 12, 1-Ethynyl-1-hydroxy-10-(4-methoxy-phenyl)-12a-methyl-2,3,3a,3b,4,5,9,10,12,12a-decahydro-1H,8H-11-oxa-naphtho[2,1-e]azulen-7-one]", "values": [
      {"measurement": "IC50", "setting": "[1]; [4]", "result": "> 1000", "unit": "nM"},
      {"measurement": "IC50", "setting": "[2]; Homo sapiens, A549, A549 cells", "result": 118, "unit": "nM"}
    ]},
    {"smiles": "CC#C[C@]1(O)CCC2C3CCC4=CC(=O)CCC4=C3[C@H](c3ccc(OC)cc3)OC[C@@]21C", "note": "(stereo partly drawn) [Compound 15, 1-Hydroxy-10-α(4-methoxy-phenyl)-12a-methyl-1-prop-1-ynyl-2,3,3a,3b,4,5,9,10,12,12a-decahydro-1H,8H-11-oxa-naphtho[2,1-e]azulen-7-one]", "values": [
      {"measurement": "IC50", "setting": "[1]; [4]", "result": "> 1000", "unit": "nM"},
      {"measurement": "IC50", "setting": "[2]; Homo sapiens, A549, A549 cells", "result": 583, "unit": "nM"}
    ]},
    {"smiles": "CC#C[C@]1(O)CCC2C3CCC4=CC(=O)CCC4=C3[C@@H](c3ccc(OC)cc3)OC[C@@]21C", "note": "(stereo partly drawn) [Compound 14, 1-Hydroxy-10-(4-methoxy-phenyl)-12a-methyl-1-prop-1-ynyl-2,3,3a,3b,4,5,9,10,12,12a-decahydro-1H,8H-11-oxa-naphtho[2,1-e]azulen-7-one]", "values": [
      {"measurement": "IC50", "setting": "[1]; [4]", "result": "> 1000", "unit": "nM"},
      {"measurement": "IC50", "setting": "[2]; Homo sapiens, A549, A549 cells", "result": 46, "unit": "nM"}
    ]}
  ]
}
